Counter-ions that a name gives are not always drawn.
System: SpA BF changes during SpN stimulation
Assay: Local lidocaine block of SpN stimulation-induced changes in splenic artery blood flow
Assay type: in vivo, pig
Settings: 2% lidocaine hydrochloride solution applied locally around the implanted SpN cuff
Method: On the experimental day, the animal was sedated with ketamine (1.5 mg/kg) and midazolam (0.5 mg/kg) administered by intramuscular injection. An intravenous catheter was placed in one auricular vein, and anesthesia was induced by propofol (2 mg/Kg) administered intravenously. An endotracheal tube was placed, and anesthesia was maintained with sevoflurane inhalant combined with continuous rate infusion (CRI) of fentanyl (0.2 μg/Kg/min).
The surgical approach to SpN cuff implantation was as follows. The thoracolumbar junction was supported and slightly elevated using a sand bag. After appropriate surgical preparation (clipping and aseptic scrub with chlorhexidine gluconate and alcohol), the left flank was aseptically draped exposing a 20×25 cm area centered on the second to last rib. A 15 cm skin incision was made in the second to last intercostal space using monopolar electrocautery. The incision was continued through the subcutaneous tissues and intercostal musculature until the peritoneum was exposed. […]
By slight rotation of the splenic visceral base towards the operator, and placing gentle ventral traction on the spleen, the gastrosplenic ligament at the splenic hilum was incised using Metzembaum scissors, exposing the SpA. […] SpA blood flow readings were tested and finally the rib retractors were partially closed and the exposed incision covered with saline-soaked gauze sponges. […]

`CCN(CC)CC(=O)Nc1c(C)cccc1C` [Lidocaine, lidocaine hydrochloride] was tested, and the “effect on changes in SpA BF caused by SpN stimulation” value was “able to block the changes in SpA BF”.

From patent US12161869B2, “Treatment of disorders associated with inflammation” (Galvani Bioelectronics Limited, priority 2017, dated 2024)
